Data published in US20150030583A1, “Methods of Treating Serosal Cancer” (SLOAN KETTERING INSTITUTE FOR CANCER RESEARCH, priority 2011, published 2015).
Where a name gives a salt, the structure may show the parent alone. Read-outs that look alike come from different tables or passages of the source.

Experiments:
[1] = test system: established tumor spheroids; test: Established tumor spheroid drug sensitivity (alamarBlue)
Ovcar3-GTL catenae = test: Ovcar3-GTL catena drug sensitivity / proliferation screen (alamarBlue, 384-well)
catena cells [2] = test: Morphological observation of treated catenae under the microscope; type: cell-based; conditions: for morphological change of treated catenae: microscope observation; for cells seen in cultures treated with high concentrations of compounds: 100 μM (rapamycin 25 μM, lovastatin acid 50 μM), cells re-entered the cell cycle without drug
[3] = test system: Ovcar3 monolayer (epithelial) cells; test: Ovarian cancer monolayer drug sensitivity (alamarBlue), Ovcar3; type: cell-based
Protocol: (§1) The foregoing total of 29 compounds were tested in parallel on ovarian cancer monolayer cells by seeding 100 Ovcar3 monolayer (epithelial) or 25 Ovcar5 monolayer (mesenchymal) cells in 384-well plates. Drugs were added 4 days after cell seeding and cell viability was analyzed by alamarBlue staining. In general, catena cells with an established glycocalyx were on average 4-8 fold more resistant to these compounds when compared to monolayers. […]

[4] = test system: Ovcar5 monolayer (mesenchymal) cells; test: Ovarian cancer monolayer drug sensitivity (alamarBlue), Ovcar5; type: cell-based
Protocol: as §1

catena cells [5] = test: Combination drug screening: paclitaxel after PEGylated enzyme treatment; type: cell-based
Protocol: Twenty-five […] seeded into 384-well plates. After 5 days, cells were treated with either PEGylated hyaluronidase, PEGylated collagenase or both for 10 minutes at 37° C. Without removing the enzymes, paclitaxel was added over a series of dilutions, followed by alamarBlue addition on day 9 with absorbance measured two days later.

[6] = 24 h, read-out: IC50 (μM) Addition on Day 1
[7] = 144 h, read-out: IC50 (μM) Addition on Day 6
[8] = 100 cells seeded, drugs added 4 days after seeding, read-out: IC50 (μM) Ovcar3 monolayer
[9] = 25 cells seeded, drugs added 4 days after seeding, read-out: IC50 (μM) Ovcar5 monolayer
[10] = catena with established glycocalyx versus monolayers
[11] = ratio of IC50 day 6 to day 1, Ovcar3-GTL catenae
[12] = read-out: IC50 (μM) Addition on Day 1; Ovcar3-GTL catenae; compound added one day after seeding (cells predominantly lacking a glycocalyx)
[13] = read-out: IC50 (μM) Addition on Day 6; Ovcar3-GTL catenae; compound added six days after seeding (established or substantial glycocalyx)
[14] = 24 h, read-out: IC50 (μM) Addition on Day 1, Ovcar3-GTL catenae; compound added one day after seeding (cells predominantly lacking a glycocalyx)
[15] = 144 h, read-out: IC50 (μM) Addition on Day 6, Ovcar3-GTL catenae; compound added six days after seeding (established or substantial glycocalyx)
[16] = read-out: IC50 (μM) No coat, pathway-specific inhibitors; catena cells without glycocalyx coat
[17] = read-out: IC50 (μM) With coat, pathway-specific inhibitors; catena cells with glycocalyx coat
[18] = increased resistance of catena cells with glycocalyx coat versus no coat
[19] = read-out: IC50 (μM) With coat; pathway-specific inhibitors; catena cells with glycocalyx coat

Molecule: COc1cc2c(cc1OC)[C@@H]1C(=O)c3ccc4c(c3O[C@@H]1CO2)C=CC(C)(C)O4 [deguelin]
- IC50 ([1]; read-out: spheroid IC50): 0.4 µM
- additional resistance conferred by spheroid formation ([1]; spheroid versus catena IC50): 15 fold
- IC50 (Ovcar3-GTL catenae; [6]): 0.025 µM
- IC50 (Ovcar3-GTL catenae; [7]): 0.025 µM

Molecule: O=C(CCCCCCC(=O)Nc1ccccc1)NO [SAHA, Vorinostat]
- morphological change of treated catenae (catena cells [2]): formation of tight spheroids

Molecule: iso-oxazole-fludelone
- IC50 [3, 8]: 0.05 µM
- IC50 [4, 9]: 0.012 µM
- cells seen in cultures treated with high concentrations of compounds (catena cells [2]): live, large single cells, i.e., cells arrested at mitosis
- Increased Resistance of catena (Ovcar3-GTL catenae; [10]): 2,000 fold
- Increase in Resistance Day6/Day 1 (Ovcar3-GTL catenae; [11]): 33,333 fold
- IC50 (Ovcar3-GTL catenae; [12]): 0.003 µM
- IC50 (Ovcar3-GTL catenae; [13]): > 100 µM

Molecule: O=c1[nH]cc(F)c(=O)[nH]1 [5-FU, 5-fluorouracil]
- morphological change of treated catenae (catena cells [2]): formation of fused chains
- IC50 (Ovcar3-GTL catenae; [14]): 3 µM
- IC50 (Ovcar3-GTL catenae; [15]): > 100 µM
- Increase in Resistance Day6/Day 1 (Ovcar3-GTL catenae; [11]): 33 fold

Molecule: CC[C@@]1(O)C(=O)OCc2c1cc1n(c2=O)Cc2cc3c(CN(C)C)c(O)ccc3nc2-1 [topotecan]
- cells seen in cultures treated with high concentrations of compounds (catena cells [2]): live, large single cells, i.e., cells arrested at mitosis
- IC50 (Ovcar3-GTL catenae; [14]): 0.02 µM
- IC50 (Ovcar3-GTL catenae; [15]): > 100 µM
- Increase in Resistance Day6/Day 1 (Ovcar3-GTL catenae; [11]): 5,000 fold

Molecule: O=c1cc(-c2cccc3c2Sc2ccccc2S3)oc(N2CCOCC2)c1 [KU-55933]
- IC50 (Ovcar3-GTL catenae; [16]): 13.4 µM
- IC50 (Ovcar3-GTL catenae; [17]): 13.4 µM

Molecule: Cc1[nH]c2ccccc2c1CCNCc1ccc(/C=C/C(=O)NO)cc1 [LBH-589 (Panobinostat), Panobinostat]
- Fold resistance (Ovcar3-GTL catenae; [18]): 4 fold
- IC50 (Ovcar3-GTL catenae; [16]): 0.01 µM
- IC50 (Ovcar3-GTL catenae; [19]): 0.05 µM

Molecule: C/C(=C\c1csc(C)n1)[C@@H]1C/C=C(/C(F)(F)F)C/C=C/[C@H](C)[C@H](O)[C@@H](C)C(=O)C(C)(C)[C@@H](O)CC(=O)O1 [fludelone]
- IC50 [3, 8]: 0.0008 µM
- IC50 [4, 9]: 0.0004 µM
- cells seen in cultures treated with high concentrations of compounds (catena cells [2]): live, large single cells, i.e., cells arrested at mitosis
- Increased Resistance of catena (Ovcar3-GTL catenae; [10]): 125,000 fold
- IC50 (Ovcar3-GTL catenae; [12]): ≤ 1.2e-05 µM
- IC50 (Ovcar3-GTL catenae; [13]): > 100 µM

Molecule: COc1ccc(CCN(C)CCCC(C#N)(c2ccc(OC)c(OC)c2)C(C)C)cc1OC (stereo not shown) [verapamil]
- IC50 (Ovcar3-GTL catenae; [6]): > 100 µM
- IC50 (Ovcar3-GTL catenae; [7]): > 100 µM

Molecule: Clc1ccc(Nc2nnc(Cc3ccncc3)c3ccccc23)cc1 [Vatalanib]
- IC50 (Ovcar3-GTL catenae; [16]): > 25 µM
- IC50 (Ovcar3-GTL catenae; [17]): > 25 µM

Molecule: Cc1ccc(NC(=O)c2ccc(CN3CCN(C)CC3)cc2)cc1Nc1nc(-c2cccnc2)cs1 [Masitinib (AB1010), Masitinib]
- IC50 (Ovcar3-GTL catenae; [16]): 13.4 µM
- IC50 (Ovcar3-GTL catenae; [17]): 13.4 µM

Molecule: CS(=O)(=O)c1ccc(C(=O)Nc2ccc(Cl)c(-c3ccccn3)c2)c(Cl)c1 [GDC-0449 (Vismodegib), Vismodegib]
- IC50 (Ovcar3-GTL catenae; [16]): > 25 µM
- IC50 (Ovcar3-GTL catenae; [17]): > 25 µM

Molecule: Nc1cccc2c1CN(C1CCC(=O)NC1=O)C2=O (stereo not shown) [Lenalidomide]
- IC50 (Ovcar3-GTL catenae; [16]): > 25 µM
- IC50 (Ovcar3-GTL catenae; [17]): > 25 µM

Molecule: CN(C)C/C=C/C(=O)Nc1cc2c(Nc3ccc(F)c(Cl)c3)ncnc2cc1O[C@H]1CCOC1 [BIBW2992 (Tovok)]
- Fold resistance (Ovcar3-GTL catenae; [18]): 4 fold
- IC50 (Ovcar3-GTL catenae; [16]): 3.14 µM
- IC50 (Ovcar3-GTL catenae; [17]): 13.4 µM

Molecule: CC(=O)O[C@H]1C(=O)[C@@]2(C)[C@H]([C@H](OC(=O)c3ccccc3)[C@]3(O)C[C@H](OC(=O)[C@H](O)[C@@H](NC(=O)c4ccccc4)c4ccccc4)C(C)=C1C3(C)C)[C@]1(OC(C)=O)CO[C@@H]1C[C@@H]2O [paclitaxel]
- decrease of paclitaxel IC50 after PEGylated hyaluronidase (catena cells [5]; enzyme 10 min at 37° C. on day 5 before paclitaxel): 2.5 fold
- decrease of paclitaxel IC50 after combination of PEGylated hyaluronidase and PEGylated collagenase (catena cells [5]; enzymes 10 min at 37° C. on day 5 before paclitaxel): 16 fold
- IC50 ([3]; Homo sapiens, OVCAR-3, 96 h, 100 cells seeded, drugs added 4 days after seeding, read-out: IC50 (μM) Ovcar3 monolayer): 0.025 µM
- IC50 ([3]; Homo sapiens, OVCAR-3, subnanomolar to no more than 50 nM, read-out: IC50 Ovcar3 monolayer cells): ≤ 0.05 µM
- IC50 ([4]; Homo sapiens, OVCAR-5, 96 h, 25 cells seeded, drugs added 4 days after seeding, read-out: IC50 (μM) Ovcar5 monolayer): 0.025 µM
- IC50 ([4]; Homo sapiens, OVCAR-5, subnanomolar to no more than 50 nM, read-out: IC50 Ovcar5 monolayer cells): ≤ 0.05 µM
- cells seen in cultures treated with high concentrations of compounds (catena cells [2]): live, large single cells, i.e., cells arrested at mitosis
- IC50 (Ovcar3-GTL catenae; [14]): ≤ 1.2e-05 µM
- IC50 (Ovcar3-GTL catenae; [15]): > 100 µM
- IC50 (Ovcar3-GTL catenae; Homo sapiens, OVCAR-3, read-out: IC50 (μM) Ovcar3 catena, catena cells with an established glycocalyx (Table D)): > 100 µM
- Increased Resistance of catena (Ovcar3-GTL catenae; [10]): 4,000 fold

Molecule: COc1cc([C@@H]2c3cc4c(cc3[C@@H](O[C@@H]3O[C@@H]5CO[C@@H](C)O[C@H]5[C@H](O)[C@H]3O)[C@H]3COC(=O)[C@H]23)OCO4)cc(OC)c1O [etoposide]
- IC50 (Ovcar3-GTL catenae; [14]): 0.4 µM
- IC50 (Ovcar3-GTL catenae; [15]): 50 µM
- Increase in Resistance Day6/Day 1 (Ovcar3-GTL catenae; [11]): 125 fold

Molecule: Oc1cccc(-c2nc(N3CCOCC3)c3oc4ncccc4c3n2)c1 [PI-103]
- Fold resistance (Ovcar3-GTL catenae; [18]): 16 fold
- IC50 (Ovcar3-GTL catenae; read-out: IC50 (μM) No coat): 0.78 µM
- IC50 (Ovcar3-GTL catenae; read-out: IC50 (μM) With coat): 13.4 µM

Molecule: Nc1ccn([C@@H]2O[C@H](CO)[C@@H](O)[C@@H]2O)c(=O)n1 [Ara-C]
- cells seen in cultures treated with high concentrations of compounds (catena cells [2]): live, large single cells, i.e., cells arrested at mitosis
- Increase in Resistance Day6/Day 1 (Ovcar3-GTL catenae; [11]): 2,000 fold
- IC50 (Ovcar3-GTL catenae; [12]): 0.05 µM
- IC50 (Ovcar3-GTL catenae; [13]): > 100 µM

Molecule: OCCn1cc(-c2ccc3c(c2)CC/C3=N\O)c(-c2ccncc2)n1 [GDC-0879]
- IC50 (Ovcar3-GTL catenae; [16]): > 25 µM
- IC50 (Ovcar3-GTL catenae; [17]): > 25 µM

Molecule: Cn1cc(-c2ccc3nnc(Sc4ccc5ncccc5c4)n3n2)cn1 [SGX-523]
- Fold resistance (Ovcar3-GTL catenae; [18]): >8 fold
- IC50 (Ovcar3-GTL catenae; [16]): 3.14 µM
- IC50 (Ovcar3-GTL catenae; [17]): > 25 µM

Molecule: Cc1ccc(Nc2nccc(N(C)c3ccc4c(C)n(C)nc4c3)n2)cc1S(N)(=O)=O [Pazopanib Hydrochloride]
- IC50 (Ovcar3-GTL catenae; [16]): > 25 µM
- IC50 (Ovcar3-GTL catenae; [17]): > 25 µM

Molecule: CC[C@H](C)C(=O)O[C@H]1C[C@@H](C)C=C2C=C[C@H](C)[C@H](CC[C@@H](O)C[C@@H](O)CC(=O)O)[C@H]21 [lovastatin acid]
- cells seen in cultures treated with high concentrations of compounds (catena cells [2]): live, large single cells, i.e., cells arrested at mitosis
- IC50 (Ovcar3-GTL catenae; [14]): 25 µM
- IC50 (Ovcar3-GTL catenae; [15]): 50 µM
- Increase in Resistance Day6/Day 1 (Ovcar3-GTL catenae; [11]): 2 fold

Molecule: O=C(NOC[C@H](O)CO)c1ccc(F)c(F)c1Nc1ccc(I)cc1F [PD0325901]
- IC50 (Ovcar3-GTL catenae; read-out: IC50 (μM) No coat): 0.2 µM
- IC50 (Ovcar3-GTL catenae; read-out: IC50 (μM) With coat): > 25 µM

Molecule: Cn1cc(-c2ccc3nnc(C(F)(F)c4ccc5ncccc5c4)n3n2)cn1 [JNJ-38877605]
- Fold resistance (Ovcar3-GTL catenae; [18]): >8 fold
- IC50 (Ovcar3-GTL catenae; [16]): 3.14 µM
- IC50 (Ovcar3-GTL catenae; [19]): > 25 µM

Molecule: C=CCNC1=C2C[C@@H](C)C[C@H](OC)[C@H](O)[C@@H](C)/C=C(\C)[C@H](OC(N)=O)[C@@H](OC)/C=C\C=C(/C)C(=O)NC(=CC1=O)C2=O [17AAG]
- Increase in Resistance Day6/Day 1 (Ovcar3-GTL catenae; [11]): 33 fold
- IC50 (Ovcar3-GTL catenae; [12]): 0.012 µM
- IC50 (Ovcar3-GTL catenae; [13]): 0.4 µM

Molecule: COc1cccc2c1C(=O)c1c(O)c3c(c(O)c1C2=O)C[C@@](O)(C(=O)CO)C[C@@H]3O[C@H]1C[C@H](N)[C@H](O)[C@H](C)O1 [doxorubicin]
- IC50 (Ovcar3-GTL catenae; [14]): 0.025 µM
- IC50 (Ovcar3-GTL catenae; [15]): 0.8 µM
- Increase in Resistance Day6/Day 1 (Ovcar3-GTL catenae; [11]): 32 fold

Molecule: CCc1cc(Nc2nccc(-c3c(-c4ccc(OC)c(C(=O)Nc5c(F)cccc5F)c4)nc4ccccn34)n2)c(OC)cc1N1CCC(N2CCN(S(C)(=O)=O)CC2)CC1 [GSK1904529A]
- IC50 (Ovcar3-GTL catenae; [16]): > 25 µM
- IC50 (Ovcar3-GTL catenae; [19]): > 25 µM

Molecule: C[C@]1(c2nc3c(C(N)=O)cccc3[nH]2)CCCN1 [ABT-888 (Veliparib), Veliparib]
- IC50 (Ovcar3-GTL catenae; [16]): 13.4 µM
- IC50 (Ovcar3-GTL catenae; [17]): > 25 µM
